Reference: US12383629B2, “DNA-affibody-drug nanoparticles for inhibiting the metastasis of cancer cells overexpressing HER2” (Arizona Board of Regents on behalf of Arizona State …, priority 2019, dated 2025)

Tested on: HER2 receptor
Test: Western blot assay for HER2 targeting
Type: cell-based
Settings: BT474, 1 h; 1 μM DOX, 0.02 μM III, 1 μM Herceptin
Protocol: Western Blot Analysis—BT474 cells (50,000 cells/mL) were seeded in a 6-well cell culture plate and incubated in 1 mL of Gibco® RPMI 1640 medium supplemented with 10% fetal bovine serum (FBS) and 1% antibiotic-antimycotic mix antibiotic supplement at 37° C. for 24 h in a 5% CO2 atmosphere. […] The cells were washed with 1 mL 1×PBS buffer, and treated with 150 μL Cellstripper® non-enzymatic cell dissociation solution. After centrifugation at 500×g for 3 min, the cell pellets were washed with 150 μL 1×PBS buffer and treated with 60 μL, of 1×RIPA lysis buffer containing protease and phosphatase inhibitor cocktail (Sigma-Aldrich). After three cycle of freeze, thaw and sonication following by centrifugation at 15,000×g for 2 min at 4° C., the clear supernatant was collected.
Total protein concentration was measured using a BCA kit (Thermo Fisher Scientific). NuPAGE LDS Sample Buffer (4×) and NuPAGE Reducing Agent (10×) was added to the lysate which was denatured at 70° C. for 5 min. Equal amounts of lysates (25 μg) were loaded on a 4%-12% SDS-polyacrylamide Bis-Tris gels (Invitrogen) according to the manufacturer's recommendations and then proteins were transferred to nitrocellulose membranes. […]

Compound: COc1cccc2c1C(=O)c1c(O)c3c(c(O)c1C2=O)C[C@@](O)(C(=O)CO)C[C@@H]3O[C@H]1C[C@H](N)[C@H](O)[C@H](C)O1 [DOX, doxorubicin]
- level of phosphorylated HER2 (Y1221/1222): did not change
